Literature values in patent publication US7183392B2, “Site-specific, covalent bioconjugation of proteins” (Zyomyx, Inc., priority 2000, dated 2007).

Key:
[1] = aqueous and polar environments
[2] = biological target: Helix A / Helix B parallel heterodimer; settings: parallel heterodimer of Helix A with Helix B; read-out: dissociation constant
RNA aptamer = settings: 11 amino acid sequence, known RNA aptamer

Substance	solubility [1]	Kd [2]	Kd (RNA aptamer)
EYQALKKKVAQLKAKNNALKKKVAQLKHKG [Helix B, basic leucine zipper helix based on GCN4, per Wendt et al]	very soluble	~6 nM	–
substance P: 11 amino acid long peptide sequence that binds a known RNA aptamer	–	–	~190 nM
EYQALEKEVAQLEAENNALEKEVAQLEHEG [Helix A]	very soluble	~6 nM	–
